Experimental data taken from patent US20250375539A1, “COMPOSITIONS OF DISPERSED SYSTEMS FOR BIOMEDICAL APPLICATIONS, PROCESS FOR THEIR PREPARATION AND USES THEREOF” (SUPERBRANCHE, priority 2022, published 2025).

Assay: Isothermal compression of Langmuir monolayers of dendrons at the air/water interface
Type: physicochemical
Settings: 25±0.5° C.
Method: The evaluation of anchoring capability of the dendrons at interfacial film of microbubbles was evaluated by investigating the isothermal compression of Langmuir monolayers formed by these molecules at the air/water interface. Langmuir monolayers constitute a bidimensional experimental model of the interfacial film of the nanoemulsions. In the above-mentioned experiments, the surface pressure (π) versus molecular area (A) isotherms were recorded using a Langmuir minitrough (KSV NIMA, Finland) equipped with two movable barriers (initial area: 365×75 mm^2, compression speed: 10 cm^2 min^−1, which corresponded to a reduction of the total area of ˜3.6% min^−1). π was measured using the Wilhelmy plate (paper) method. The trough was maintained at 25±0.5° C. Solutions of oligo(ethylene oxide) dendrons (1 mmol L^−1) in chloroform were spread on the surface of water (320 mL). Subsequently, 15 min was allowed for chloroform to evaporate and the film to equilibrate before compression was initiated. All the experiments were performed at least three times. Since our Langmuir trough only allowed for a surface area compression of about 10, isotherms were recorded in three separate experiments.

In the case of CCOP(=O)(Cc1cc(CP(=O)(OCC)OCC)cc(OCCNC(=O)c2cc(OCCOCCOCCOCCOC)c(OCCOCCOCCOCCOC)c(OCCOCCOCCOCCOC)c2)c1)OCC [DM], the “collapse pressure / surface pressure of the Langmuir monolayer” value is reported as roughly 10 mN m^−1.
